Data reported in patent US11161837B2, “Benzofuran derivatives for the treatment of hepatitis C” (BRISTOL-MYERS SQUIBB COMPANY, priority 2016, dated 2021).

Experiments:
[1] = biological target: T1, NS5B proteins of HCV genotype 1b (Con1) (Hepatitis C virus genotype 1b, UniProt Q9WMX2); assay: HCV NS5B RdRp enzyme assay; type: biochemical; settings: 1b enzyme
T1 construct: Each untagged protein was expressed with an 18 amino acid C-terminal truncation to enhance the solubility; made in house; host or cells: E. coli BL21(DE3), pET21a
Method: HCVNS5B RdRp Cloning, Expression, and Purification.
The cDNA encoding NS5B proteins of HCV genotype 1b (Con1), a genotype 1b variant with amino acid 316 mutated from cysteine to asparagine, and genotype 2a (JFH-1), were cloned into the pET21a expression vector. Each untagged protein was expressed with an 18 amino acid C-terminal truncation to enhance the solubility. The E. coli competent cell line BL21(DE3) was used for expression of the protein. Cultures were grown at 37° C. for ˜4 hours until the cultures reached an optical density of 2.0 at 600 nm. The cultures were cooled to 20° C. and induced with 1 mM IPTG. Fresh ampicillin was added to a final concentration of 50 μg/mL and the cells were grown overnight at 20° C.
Cell pellets (3 L) were lysed for purification to yield 15-24 mgs of purified NS5B. The lysis buffer consisted of 20 mM Tris-HCl, pH 7.4, 500 mM NaCl, 0.5% triton X-100, 1 mM DTT, 1 mM EDTA, 20% glycerol, 0.5 mg/mL lysozyme, 10 mM MgCl2, 15 ug/mL deoxyribonuclease I, and Complete TM protease inhibitor tablets (Roche). After addition of the lysis buffer, frozen cell pellets were resuspended using a tissue homogenizer. To reduce the viscosity of the sample, aliquots of the lysate were sonicated on ice using a microtip attached to a Branson sonicator. The sonicated lysate was centrifuged at 100,000×g for 30 minutes at 4° C. and filtered through a 0.2 μm filter unit (Corning).
The protein was purified using two sequential chromatography steps: Heparin sepharose CL-6B and polyU sepharose 4B. The chromatography buffers were identical to the lysis buffer but contained no lysozyme, deoxyribonuclease I, MgCl2 or protease inhibitor and the NaCl concentration of the buffer was adjusted according to the requirements for charging the protein onto the column. Each column was eluted with a NaCl gradient which varied in length from 5-50 column volumes depending on the column type. After the final chromatography step, the resulting purity of the enzyme is >90% based on SDS-PAGE analysis. The enzyme was aliquoted and stored at −80° C.
HCVNS5B RdRp Enzyme Assay.
An on-bead solid phase homogeneous assay was used in a 384-well format to assess NS5B inhibitors (WangY-K, Rigat K, Roberts S, and Gao M (2006) Anal Biochem, 359: 106-111). The biotinylated oligo dT12 primer was captured on streptavidin-coupled imaging beads (GE, RPNQ0261) by mixing primer and beads in 1× buffer and incubating at room temperature for three hours. Unbound primer was removed after centrifugation. The primer-bound beads were resuspended in 3× reaction mix (20 mM Hepes buffer, pH 7.5, dT primer coupled beads, poly A template, ^3H-UTP, and RNAse inhibitor (Promega N2515)). Compounds were serially diluted 1:3 in DMSO and aliquoted into assay plates. Equal volumes (10 μL) of water, 3× reaction mix, and enzyme in 3× assay buffer (60 mM Hepes buffer, pH 7.5, 7.5 mM MgCl2, 7.5 mM KCl, 3 mM DTT, 0.03 mg/mL BSA, 6% glycerol) were added to the diluted compound on the assay plate. Final concentration of components in 384-well assay: 0.36 nM template, 15 nM primer, 0.29 μM ^3H-UTP (0.3 μCi), 1.6 U/μL RNAse inhibitor, 7 nM NS5B enzyme, 0.01 mg/mL BSA, 1 mM DTT, and 0.33 μg/μL beads, 20 mM Hepes buffer, pH 7.5, 2.5 mM MgCl2, 2.5 mM KCl, and 0.1% DMSO.
Reactions were allowed to proceed from 4 to 24 hours at 30° C. For 24 hour reactions, enzyme and inhibitors were pre-incubated for 24 hours before adding template and primer. Reactions were terminated by the addition of 50 mM EDTA (10 μL). After incubating for at least 15 minutes, plates were read on an Amersham LEADseeker multimodality imaging system.
IC50 values for compounds were determined using ten different [I]. IC50 values were calculated from the inhibition using the four-parameter logistic formula y=A+((B−A)/(1+((C/x)^D))), where A and B denote minimal and maximal % inhibition, respectively, C is the IC50, D is hill slope and x represents compound concentration.

[2] = tested on: genotype 1b (Con-1) HCV replicon in Huh-7 cells; assay: HCV replicon luciferase assay; type: cell-based; settings: 1b replicon, Huh-7, Renilla luciferase, 3 days incubation
Method: The cell lines used to evaluate compounds consist of a human hepatocyte derived cell line (Huh-7) that constitutively expresses a genotype 1b (Con-1) HCV replicon or a genotype 1b (Con-1) HCV replicon with an asparagine replacing the cysteine at amino acid 316, or a genotype 2a (JFH-1) replicon, containing a Renilla luciferase reporter gene. These cells were maintained in Dulbecco's modified Eagle medium (DMEM) containing 10% FBS, 100 U/mL penicillin/streptomycin and 1.0 mg/mL G418.
HCV Replicon Luciferase Assay.
To evaluate compound efficacy, titrated compounds were transferred to sterile 384-well tissue culture treated plates, and the plates were seeded with HCV replicon cells (50 μL at a density of 2.4×10^3 cells/well) in DMEM containing 4% FBS (final DMSO concentration at 0.5%). After 3 days incubation at 37° C., cells were analyzed for Renilla Luciferase activity using the EnduRen substrate (Promega cat # E6485) according to the manufacturer's directions. Briefly, the EnduRen substrate was diluted in DMEM and then added to the plates to a final concentration of 7.5 μM. The plates were incubated for at least 1 h at 37° C. then read on a Viewlux Imager (PerkinElmer) using a luminescence program. The 50% effective concentration (EC50) was calculated using the four-parameter logistic formula noted above.

T1 sequence (Q9WMX2 2420-2992): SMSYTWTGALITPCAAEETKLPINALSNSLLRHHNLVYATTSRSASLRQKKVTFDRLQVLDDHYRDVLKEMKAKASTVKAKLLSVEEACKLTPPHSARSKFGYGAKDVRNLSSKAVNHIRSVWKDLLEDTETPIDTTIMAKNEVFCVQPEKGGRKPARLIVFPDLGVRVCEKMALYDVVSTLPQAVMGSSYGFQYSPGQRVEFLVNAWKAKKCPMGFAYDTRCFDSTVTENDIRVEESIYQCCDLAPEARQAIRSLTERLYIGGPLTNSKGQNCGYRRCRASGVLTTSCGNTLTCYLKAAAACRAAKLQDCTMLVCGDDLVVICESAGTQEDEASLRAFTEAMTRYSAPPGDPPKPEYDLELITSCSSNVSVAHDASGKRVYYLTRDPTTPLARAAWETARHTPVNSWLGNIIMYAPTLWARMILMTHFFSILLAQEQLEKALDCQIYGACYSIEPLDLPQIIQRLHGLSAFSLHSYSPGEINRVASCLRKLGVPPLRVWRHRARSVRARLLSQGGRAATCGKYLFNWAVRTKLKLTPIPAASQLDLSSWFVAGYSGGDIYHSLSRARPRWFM

SMILES | IC50 [1] | EC50 [2] | EC50 ([2]; Hepatitis C virus, Huh-7, 72 h)
CNC(=O)c1c(-c2ccc(F)cc2)oc2cc(CCC(F)(F)F)c(-c3cccc(C(=O)NC4(C)CC(OC(F)F)C4)c3)cc12 (single isomer, unassigned) [Example 59b, 5-(3-((3-(Difluoromethoxy)-1-methylcyclobutyl)carbamoyl)phenyl)-2-(4-fluorophenyl)-N-methyl-6-(3,3,3-trifluoropropyl)benzofuran-3-carboxamide] | 10 nM | 20 nM | 
CNC(=O)c1c(-c2ccc(F)cc2)oc2ccc(-c3cc(C(=O)NC4(c5ncccn5)CC(F)C4)cc(F)c3C)c(F)c12 (stereo not drawn) [Example 20, 4-Fluoro-5-(3-fluoro-5-(3-fluoro-1-(pyrimidin-2-yl)cyclobutylcarbamoyl)-2-methylphenyl)-2-(4-fluorophenyl)-N-methylbenzofuran-3-carboxamide] | 90 nM |  | 6.16 nM
CNC(=O)c1c(-c2ccc(F)cc2)oc2ccc(-c3cc(C(=O)NC4(c5ncccn5)CC(OC)C4)cc(F)c3C)c(F)c12 (single isomer, unassigned) [Example 11a, 4-Fluoro-5-(3-fluoro-5-((3-methoxy-1-(pyrimidin-2-yl)cyclobutyl)carbamoyl)-2-methylphenyl)-2-(4-fluorophenyl)-N-methylbenzofuran-3-carboxamide] | 90 nM | 40 nM | 
CNC(=O)c1c(-c2ccc(F)cc2)oc2cc(CCC(F)(F)F)c(-c3ccc(OC)c(C(=O)NC4(c5ncccn5)CC(OC(F)(F)F)C4)c3)cc12 (single isomer, unassigned) [Example 47b, 2-(4-Fluorophenyl)-5-(4-methoxy-3-((1-(pyrimidin-2-yl)-3-(trifluoromethoxy)cyclobutyl)carbamoyl)phenyl)-N-methyl-6-(3,3,3-trifluoropropyl)benzofuran-3-carboxamide] | 10 nM | 10 nM | 
CNC(=O)c1c(-c2ccc(F)cc2)oc2ccc(-c3cc(C(=O)NC4(c5ncccn5)CC(OC)C4)c(OC)cc3C)c(F)c12 (single isomer, unassigned) [Example 13a, 4-Fluoro-2-(4-fluorophenyl)-5-(4-methoxy-5-((3-methoxy-1-(pyrimidin-2-yl)cyclobutyl)carbamoyl)-2-methylphenyl)-N-methylbenzofuran-3-carboxamide] | 30 nM | 30 nM | 
CNC(=O)c1c(-c2ccc(F)cc2)oc2ccc(-c3cc(C(=O)NC4(c5ncccn5)CC(O)C4)c(OC)cc3C)c(F)c12 (single isomer, unassigned) [Example 12b, 4-Fluoro-2-(4-fluorophenyl)-5-(5-((3-hydroxy-1-(pyrimidin-2-yl)cyclobutyl)carbamoyl)-4-methoxy-2-methylphenyl)-N-methylbenzofuran-3-carboxamide] | 210 nM | 140 nM | 
CNC(=O)c1c(-c2ccc(F)cc2)oc2cc(NCC(F)(F)F)c(-c3ccc(OC)c(C(=O)NC4(c5ncccn5)CC(OC(F)F)C4)c3)cc12 (single isomer, unassigned) [Example 64b] | 3.97 nM | 5.97 nM | 
CNC(=O)c1c(-c2ccc(F)cc2)oc2ccc(-c3cc(C(=O)NC4(c5ncccn5)CC(O)C4)cc(F)c3C)c(F)c12 (single isomer, unassigned) [Example 9b, 4-Fluoro-5-(3-fluoro-5-((3-hydroxy-1-(pyrimidin-2-yl)cyclobutyl)carbamoyl)-2-methylphenyl)-2-(4-fluorophenyl)-N-methylbenzofuran-3-carboxamide] | 310 nM | 300 nM | 
CNC(=O)c1c(-c2ccc(F)cc2)oc2ccc(-c3cc(C(=O)NC4(c5ncccn5)CC(F)(F)C4)c(OC)cc3C)c(F)c12 [Example 18, 5-(5-(3,3-Difluoro-1-(pyrimidin-2-yl)cyclobutylcarbamoyl)-4-methoxy-2-methylphenyl)-4-fluoro-2-(4-fluorophenyl)-N-methylbenzofuran-3-carboxamide] | 140 nM |  | 10 nM
CCCc1cc2oc(-c3ccc(F)cc3)c(C(=O)NC)c2cc1-c1cccc(C(=O)NC2(c3ncccn3)CC(OC(F)(F)F)C2)c1 (stereo not drawn) [Example 44, 2-(4-Fluorophenyl)-N-methyl-6-propyl-5-(3-((1-(pyrimidin-2-yl)-3-(trifluoromethoxy)cyclobutyl)carbamoyl)phenyl)benzofuran-3-carboxamide] | 5.87 nM |  | 9.51 nM
CNC(=O)c1c(-c2ccc(F)cc2)oc2cc(NCC(F)(F)F)c(-c3cccc(C(=O)NC4(c5ncccn5)CC(OC(F)F)C4)c3)cc12 (single isomer, unassigned) [Example 65a] | 4.55 nM | 8.72 nM | 
CNC(=O)c1c(-c2ccc(F)cc2)oc2cc(NCC(F)(F)F)c(-c3cccc(C(=O)NC4(c5ncccn5)CC(OC(F)F)C4)c3)cc12 (single isomer, unassigned) [Example 65b] | 4.73 nM | 4.23 nM | 
CNC(=O)c1c(-c2ccc(F)cc2)oc2ccc(-c3cc(C(=O)NC4(c5ncccn5)CC(O)C4)ccc3C)c(F)c12 (single isomer, unassigned) [Example 5a, 4-Fluoro-2-(4-fluorophenyl)-5-(5-((3-hydroxy-1-(pyrimidin-2-yl)cyclobutyl)carbamoyl)-2-methylphenyl)-N-methylbenzofuran-3-carboxamide] | 1280 nM | 3860 nM | 
CNC(=O)c1c(-c2ccc(F)cc2)oc2ccc(-c3cc(C(=O)NC4(c5ncccn5)CC(OC)(OC)C4)c(OC)cc3C)c(F)c12 [Example 14, 5-(5-((3,3-Dimethoxy-1-(pyrimidin-2-yl)cyclobutyl)carbamoyl)-4-methoxy-2-methylphenyl)-4-fluoro-2-(4-fluorophenyl)-N-methylbenzofuran-3-carboxamide] | 30 nM |  | 20 nM
CCN(c1cc2oc(-c3ccc(F)cc3)c(C(=O)NC)c2cc1-c1cccc(C(=O)NC2(c3ncccn3)CC(F)C2)c1)S(C)(=O)=O (stereo not drawn) [Example 25, 6-(N-ethylmethylsulfonamido)-5-(3-((3-fluoro-1-(pyrimidin-2-yl)cyclobutyl)carbamoyl)phenyl)-2-(4-fluorophenyl)-N-methylbenzofuran-3-carboxamide] | 1.37 nM |  | 5.29 nM
